Data on 14 compounds can be found in patent US20240165244A1 (Prelude Therapeutics Incorporated, priority 2022, published 2024).

Test [1] has as its system SMARCA4 mutated cancer cells. The note with it: Vangamudi et al. Cancer Res 2015; cited from earlier work.
Test [2] concerns the target T1, SMARCA2 (Homo sapiens, UniProt P51531).
T1 construct: SMARCA2-HiBiT knock-in Hela monoclonal cell (CS302366); host or cells: HeLa monoclonal cells with heterozygous HiBiT knock-in at the endogenous SMARCA2 locus
As to the kind of experiment: SMARCA2 HiBiT degradation assay in HeLa cells. The class given is cell-based. The note with it: 18 hours, highest concentration 10 μM. The essentials: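 Degradation was read as Nano-Glo HiBiT lytic luminescence (30-60 min, RT) and fitted to curves. Compounds in 3-fold dilutions up to 10 μM were applied for 18 h at 37 °C. Cells were 2500/well monoclonal HeLa with a heterozygous C-terminal HiBiT tag on SMARCA2.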

Test [3] deals with T2, SMARCA4 (Homo sapiens, UniProt P51532).
T2 construct: SMARCA4-HiBiT knock-in Hela monoclonal cell (CS3023226); host or cells: HeLa monoclonal cells with heterozygous HiBiT knock-in at the endogenous SMARCA4 locus
T2 sequence (P51532 whole entry): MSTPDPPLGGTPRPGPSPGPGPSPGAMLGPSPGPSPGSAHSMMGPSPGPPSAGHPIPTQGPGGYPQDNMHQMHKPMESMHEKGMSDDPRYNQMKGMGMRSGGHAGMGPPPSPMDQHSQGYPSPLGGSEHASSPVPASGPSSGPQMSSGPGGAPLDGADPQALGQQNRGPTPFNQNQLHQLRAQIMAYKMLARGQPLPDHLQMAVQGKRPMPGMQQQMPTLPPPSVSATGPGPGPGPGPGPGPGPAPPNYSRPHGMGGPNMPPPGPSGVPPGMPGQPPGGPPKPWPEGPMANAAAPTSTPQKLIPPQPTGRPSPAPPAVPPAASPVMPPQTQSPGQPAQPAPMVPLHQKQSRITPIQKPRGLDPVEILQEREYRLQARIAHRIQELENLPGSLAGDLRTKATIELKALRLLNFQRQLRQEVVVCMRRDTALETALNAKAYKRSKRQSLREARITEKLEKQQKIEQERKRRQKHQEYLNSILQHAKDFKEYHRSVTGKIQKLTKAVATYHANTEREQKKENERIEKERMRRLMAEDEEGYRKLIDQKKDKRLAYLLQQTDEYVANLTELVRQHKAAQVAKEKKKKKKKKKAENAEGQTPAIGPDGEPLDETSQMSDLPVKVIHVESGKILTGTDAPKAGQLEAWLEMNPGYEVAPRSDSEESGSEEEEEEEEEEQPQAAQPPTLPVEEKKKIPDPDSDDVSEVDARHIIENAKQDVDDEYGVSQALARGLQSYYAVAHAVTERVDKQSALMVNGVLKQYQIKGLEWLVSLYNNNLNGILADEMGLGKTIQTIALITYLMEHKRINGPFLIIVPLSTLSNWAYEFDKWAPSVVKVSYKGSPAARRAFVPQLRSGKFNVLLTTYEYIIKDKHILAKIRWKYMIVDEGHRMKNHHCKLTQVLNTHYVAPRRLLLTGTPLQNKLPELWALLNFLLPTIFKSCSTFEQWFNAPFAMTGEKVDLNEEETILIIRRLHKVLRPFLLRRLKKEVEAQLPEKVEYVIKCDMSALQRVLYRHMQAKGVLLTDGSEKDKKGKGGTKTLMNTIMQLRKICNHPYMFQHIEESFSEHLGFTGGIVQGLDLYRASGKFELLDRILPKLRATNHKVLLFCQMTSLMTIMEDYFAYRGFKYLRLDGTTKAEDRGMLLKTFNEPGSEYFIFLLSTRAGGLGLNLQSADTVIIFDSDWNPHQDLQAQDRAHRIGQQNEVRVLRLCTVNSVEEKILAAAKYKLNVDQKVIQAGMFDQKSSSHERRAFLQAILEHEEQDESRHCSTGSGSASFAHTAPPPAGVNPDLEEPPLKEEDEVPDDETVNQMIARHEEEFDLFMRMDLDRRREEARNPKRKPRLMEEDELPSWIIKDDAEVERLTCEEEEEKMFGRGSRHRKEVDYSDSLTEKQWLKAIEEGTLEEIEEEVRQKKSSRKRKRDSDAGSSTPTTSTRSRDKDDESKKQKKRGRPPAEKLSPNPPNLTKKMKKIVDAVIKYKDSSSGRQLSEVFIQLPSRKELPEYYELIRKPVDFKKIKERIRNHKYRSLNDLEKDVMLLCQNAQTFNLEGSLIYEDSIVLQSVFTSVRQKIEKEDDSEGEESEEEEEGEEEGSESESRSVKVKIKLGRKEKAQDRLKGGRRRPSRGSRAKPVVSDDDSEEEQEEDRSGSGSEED
As to the kind of experiment: SMARCA4 HiBiT degradation assay in HeLa cells. The note with it: 18 hours, highest concentration 10 μM. The format is cell-based. Summed up: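 HeLa monoclonal cells with HiBiT knocked into SMARCA4 were seeded at 2500 cells/well, dosed with compound and incubated 18 hours at 37° C. HiBiT signal reported remaining SMARCA4 protein, and values came from curve fitting.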

The structures appear in SMILES notation.

T1 sequence (P51531 whole entry): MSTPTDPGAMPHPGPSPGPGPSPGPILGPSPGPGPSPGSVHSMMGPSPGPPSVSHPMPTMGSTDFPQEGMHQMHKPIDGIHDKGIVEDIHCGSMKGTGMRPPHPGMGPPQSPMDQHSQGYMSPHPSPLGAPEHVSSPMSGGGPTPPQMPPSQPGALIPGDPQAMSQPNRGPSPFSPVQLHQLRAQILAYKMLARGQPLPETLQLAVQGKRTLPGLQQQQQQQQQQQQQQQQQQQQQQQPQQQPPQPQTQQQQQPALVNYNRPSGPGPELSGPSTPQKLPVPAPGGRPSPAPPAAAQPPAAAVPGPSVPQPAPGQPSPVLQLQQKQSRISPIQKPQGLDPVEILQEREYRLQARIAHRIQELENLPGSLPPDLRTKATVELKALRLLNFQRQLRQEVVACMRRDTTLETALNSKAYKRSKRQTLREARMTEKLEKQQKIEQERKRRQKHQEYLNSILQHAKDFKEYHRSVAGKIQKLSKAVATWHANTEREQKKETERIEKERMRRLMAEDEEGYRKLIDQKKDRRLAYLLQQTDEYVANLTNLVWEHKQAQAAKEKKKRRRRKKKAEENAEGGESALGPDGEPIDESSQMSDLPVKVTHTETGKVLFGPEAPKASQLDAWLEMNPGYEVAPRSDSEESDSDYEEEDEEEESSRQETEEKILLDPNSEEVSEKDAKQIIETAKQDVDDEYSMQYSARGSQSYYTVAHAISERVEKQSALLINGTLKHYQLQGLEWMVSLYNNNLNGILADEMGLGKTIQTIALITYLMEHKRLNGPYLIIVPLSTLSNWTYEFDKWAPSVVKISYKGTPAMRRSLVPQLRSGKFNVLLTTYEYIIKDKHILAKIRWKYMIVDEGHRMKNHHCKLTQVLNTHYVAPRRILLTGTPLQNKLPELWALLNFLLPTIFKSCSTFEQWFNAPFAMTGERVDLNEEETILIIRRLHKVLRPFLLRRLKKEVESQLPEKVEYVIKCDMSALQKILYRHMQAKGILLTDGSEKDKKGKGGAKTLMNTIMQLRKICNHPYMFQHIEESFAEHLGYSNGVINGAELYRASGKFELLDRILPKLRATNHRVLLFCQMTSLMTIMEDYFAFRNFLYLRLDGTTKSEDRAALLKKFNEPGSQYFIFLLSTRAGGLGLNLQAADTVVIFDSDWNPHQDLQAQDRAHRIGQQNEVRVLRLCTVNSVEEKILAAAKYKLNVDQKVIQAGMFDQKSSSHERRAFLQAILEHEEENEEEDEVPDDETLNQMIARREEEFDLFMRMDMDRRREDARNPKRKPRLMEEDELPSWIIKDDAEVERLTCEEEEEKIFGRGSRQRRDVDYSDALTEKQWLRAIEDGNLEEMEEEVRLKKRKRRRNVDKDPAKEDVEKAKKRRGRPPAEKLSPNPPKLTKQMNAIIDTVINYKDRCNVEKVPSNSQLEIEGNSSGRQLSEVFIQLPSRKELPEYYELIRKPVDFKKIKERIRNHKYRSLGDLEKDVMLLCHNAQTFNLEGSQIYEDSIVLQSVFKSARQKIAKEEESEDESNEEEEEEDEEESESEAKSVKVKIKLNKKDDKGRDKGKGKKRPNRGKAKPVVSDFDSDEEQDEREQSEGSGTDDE

As to `O=C(/C=C/N1C[C@H]2C[C@@H]1CN2c1ccccn1)c1ccccc1O` [PFI-3], the “effects on cell proliferation inhibition” value in test [1] is on record as “none to minor effects”.

Broadly, the DC50 is the midpoint of the concentration-degradation curve. One may read the Dmax as the greatest extent of degradation seen. Read a low Dmax as a partial loss of target. In test [2], `Cc1c(CN2CCN(c3ccc4c(c3)C(=O)N([C@H]3CCC(=O)NC3=O)C4)CC2)cnc(O[C@H]2CN3c4cc(-c5cccc(F)c5O)nnc4NC[C@@]3(C(F)F)C2)c1C` [Example 86, (S)-3-(6-(4-((6-(((6aR,8R)-6a-(difluoromethyl)-2-(3-fluoro-2-hydroxyphenyl)-5,6,6a,7,8,9-hexahydropyrrolo[1′,2′:4,5]pyrazino[2,3-c]pyridazin-8-yl)oxy)-4,5-dimethylpyridin-3-yl)methyl)piperazin-1-yl)-1-oxoisoindolin-2-yl)piperidine-2,6-dione] came in with a DC50 of less than 100 nM and a Dmax greater than 75%. In test [3], this compound registered a 50% degradation concentration (DC50) of 100 to 1000 nM and a Dmax of less than 50%.

In test [2], `O=C1CCC(N2Cc3ccc(N4CCN(Cc5cnc(S[C@@H]6C[C@@H]7CNc8nnc(-c9cc(F)cc(F)c9O)cc8N7C6)nc5)CC4)cc3C2=O)C(=O)N1` (stereo partly drawn) [Example 26, 3-(6-(4-((2-(((6aR,8R)-2-(3,5-difluoro-2-hydroxyphenyl)-5,6,6a,7,8,9-hexa-hydropyrrolo[1′,2′:4,5]pyrazino[2,3-c]pyridazin-8-yl)thio)pyrimidin-5-yl)methyl)piperazin-1-yl)-1-oxoisoindolin-2-yl)piperidine-2,6-dione] showed a 50% degradation concentration (DC50) of less than 100 nM and a Dmax greater than 75%. Moreover, in test [3], the DC50 was less than 100 nM and the Dmax is greater than 75%.

As to `CC(C)c1nc(O[C@H]2CN3c4cc(-c5cccc(F)c5O)nnc4NC[C@]3(C(F)F)C2)ncc1CN1CCN(c2ccc3c(c2)C(=O)N(C2CCC(=O)NC2=O)C3)CC1` (stereo partly drawn) [Example 50, 3-(6-(4-((2-(((6aS,8R)-6a-(difluoromethyl)-2-(3-fluoro-2-hydroxyphenyl)-5,6,6a,7,8,9-hexahydropyrrolo [1′,2′:4,5]pyrazino[2,3-c]pyridazin-8-yl)oxy)-4-isopropylpyrimidin-5-yl)methyl)piperazin-1-yl)-1-oxoisoindolin-2-yl)piperidine-2,6-dione], in test [2], the DC50 is less than 100 nM and the maximal degradation (Dmax) was greater than 75%. Moreover, in test [3], the DC50 is less than 100 nM and the Dmax fell in the range of 50 to 75%.

As for `CC[C@@]12CNc3nnc(-c4cccc(Cl)c4O)cc3N1C[C@H](Oc1cc(C)c(CN3CCC(c4ccc5c(c4)C(=O)N([C@H]4CCC(=O)NC4=O)C5)CC3)cn1)C2` [Example 100, (S)-3-(6-(1-((6-(((6aR,8R)-2-(3-chloro-2-hydroxyphenyl)-6a-ethyl-5,6,6a,7,8,9-hexahydropyrrolo[1′,2′:4,5]pyrazino[2,3-c]pyridazin-8-yl)oxy)-4-methylpyridin-3-yl)methyl)piperidin-4-yl)-1-oxoisoindolin-2-yl)piperidine-2,6-dione], in test [2], the DC50 was less than 100 nM and the Dmax is greater than 75%. In test [3], this compound returned a DC50 of 100 to 1000 nM and a Dmax of less than 50%.

As for `C[C@]12CNc3nnc(-c4cccc(F)c4O)cc3N1C[C@H](Oc1cnc(CN3CCN(c4ccc5c(c4)C(=O)N([C@H]4CCC(=O)NC4=O)C5)CC3)cn1)C2` [Example 79, (S)-3-(6-(4-((5-(((6aS,8R)-2-(3-fluoro-2-hydroxyphenyl)-6a-methyl-5,6,6a,7,8,9-hexahydropyrrolo[1′,2′:4,5]pyrazino[2,3-c]pyridazin-8-yl)oxy)pyrazin-2-yl)methyl)piperazin-1-yl)-1-oxoisoindolin-2-yl)piperidine-2,6-dione], in test [2], the DC50 was less than 100 nM and the Dmax was greater than 75%. In test [3], this compound gave a DC50 of less than 100 nM and a Dmax of 50 to 75%.

Consider `O=C1CC[C@H](N2Cc3ccc(N4CCN(Cc5ccc(O[C@H]6CN7c8cc(-c9cccc(F)c9O)nnc8NC[C@]7(C(F)F)C6)cn5)CC4)cc3C2=O)C(=O)N1` [Example 49, (S)-3-(6-(4-((5-(((6aS,8R)-6a-(difluoromethyl)-2-(3-fluoro-2-hydroxyphenyl)-5,6,6a,7,8,9-hexahydropyrrolo [1′,2′:4,5]pyrazino[2,3-c]pyridazin-8-yl)oxy)pyridin-2-yl)methyl)piperazin-1-yl)-1-oxoisoindolin-2-yl)piperidine-2,6-dione], for which, in test [2], the DC50 is less than 100 nM and the Dmax is greater than 75%. Also, in test [3], the DC50 was in the range of 100 to 1000 nM and the Dmax is less than 50%.

In test [2], `Cc1cc(CN2CCN(c3ccc4c(c3)C(=O)N(C3CCC(=O)NC3=O)C4)CC2)ccc1O[C@@H]1C[C@@H]2CNc3nnc(-c4cc(F)cc(F)c4O)cc3N2C1` (stereo partly drawn) [Example 2, 3-(6-(4-(4-(((6aR,8R)-2-(3,5-difluoro-2-hydroxyphenyl)-5,6,6a,7,8,9-hexahydropyrrolo[1′,2′:4,5]pyrazino[2,3-c]pyridazin-8-yl)oxy)-3-methylbenzyl)piperazin-1-yl)-1-oxoisoindolin-2-yl)piperidine-2,6-dione] yielded a DC50 of less than 100 nM and a Dmax greater than 75%. In test [3], this compound showed a DC50 of less than 100 nM and a Dmax greater than 75%.

In test [2], `O=C1CCC(N2Cc3ccc(N4CCN(Cc5ccc(O[C@@H]6C[C@@H]7CNc8nnc(-c9cc(F)cc(F)c9O)cc8N7C6)cc5OC(F)(F)F)CC4)cc3C2=O)C(=O)N1` (stereo partly drawn) [Example 24, 3-(6-(4-(4-(((6aR,8R)-2-(3,5-difluoro-2-hydroxyphenyl)-5,6,6a,7,8,9-hexahydropyrrolo[1′,2′:4,5]pyrazino[2,3-c]pyridazin-8-yl)oxy)-2-(trifluoromethoxy)benzyl)piperazin-1-yl)-1-oxoisoindolin-2-yl)piperidine-2,6-dione] gave a 50% degradation concentration (DC50) of less than 100 nM and a maximal degradation (Dmax) of 50 to 75%. In addition, in test [3], the DC50 was greater than 1000 nM and the Dmax is less than 50%.

With `CC[C@@]12CNc3nnc(-c4cccc(F)c4O)cc3N1C[C@H](Oc1ncc(CN3CCN(c4ccc5c(c4)C(=O)N(C4CCC(=O)NC4=O)C5)CC3)c(C)c1F)C2` (stereo partly drawn) [Example 61, 3-(6-(4-((6-(((6aR,8R)-6a-ethyl-2-(3-fluoro-2-hydroxyphenyl)-5,6,6a,7,8,9-hexahydropyrrolo[1′,2′:4,5]pyrazino[2,3-c]pyridazin-8-yl)oxy)-5-fluoro-4-methylpyridin-3-yl)methyl)piperazin-1-yl)-1-oxoisoindolin-2-yl)piperidine-2,6-dione], the DC50 in test [2] and in test [3] was less than 100 nM in each case. The Dmax in test [2] was greater than 75%; in test [3] it was 50 to 75%.

For `O=C1CCC(N2Cc3ccc(N4CCC(Cn5cc(O[C@@H]6C[C@@H]7CNc8nnc(-c9cc(F)cc(F)c9O)cc8N7C6)cn5)CC4)cc3C2=O)C(=O)N1` (stereo partly drawn) [Example 39, 3-(6-(4-((4-(((6aR,8R)-2-(3,5-difluoro-2-hydroxyphenyl)-5,6,6a,7,8,9-hexahydropyrrolo[1′,2′:4,5]pyrazino[2,3-c]pyridazin-8-yl)oxy)-1H-pyrazol-1-yl)methyl)piperidin-1-yl)-1-oxoisoindolin-2-yl)piperidine-2,6-dione], the DC50 in test [2] and in test [3] was greater than 1000 nM in each case.

On to `CC[C@@]12CNc3nnc(-c4cccc(C)c4O)cc3N1C[C@H](Oc1cnc(CN3CCC(c4ccc5c(c4)C(=O)N([C@H]4CCC(=O)NC4=O)C5)CC3)c(C)c1C)C2` [Example 95, (S)-3-(6-(1-((5-(((6aR,8R)-6a-ethyl-2-(2-hydroxy-3-methylphenyl)-5,6,6a,7,8,9-hexahydropyrrolo[1′,2′:4,5]pyrazino[2,3-c]pyridazin-8-yl)oxy)-3,4-dimethylpyridin-2-yl)methyl)piperidin-4-yl)-1-oxoisoindolin-2-yl)piperidine-2,6-dion], for which, in test [2], the DC50 was less than 100 nM and the Dmax is greater than 75%. In test [3], the DC50 was greater than 1000 nM and the Dmax was less than 50%.

In test [2], `Cc1nc(O[C@H]2CN3c4cc(-c5cccc(F)c5O)nnc4NC[C@]3(C(F)F)C2)cnc1CN1CCN(c2ccc3c(c2)C(=O)N(C2CCC(=O)NC2=O)C3)CC1` (stereo partly drawn) [Example 51, 3-(6-(4-((5-(((6aS,8R)-6a-(difluoromethyl)-2-(3-fluoro-2-hydroxyphenyl)-5,6,6a,7,8,9-hexahydropyrrolo[1′,2′:4,5]pyrazino[2,3-c]pyridazin-8-yl)oxy)-3-methylpyrazin-2-yl)methyl)piperazin-1-yl)-1-oxoisoindolin-2-yl)piperidine-2,6-dione] registered a DC50 of less than 100 nM and a Dmax greater than 75%. In test [3], this compound had a DC50 greater than 1000 nM and a maximal degradation (Dmax) of less than 50%.

Regarding `CC[C@]12CNc3nnc(-c4cccc(C)c4O)cc3N1C[C@H](Oc1cnc(CN3CCC(c4ccc5c(c4)C(=O)N([C@H]4CCC(=O)NC4=O)C5)CC3)c(C)c1)C2` [Example 97, (S)-3-(6-(1-((5-(((6aS,8R)-6a-ethyl-2-(2-hydroxy-3-methylphenyl)-5,6,6a,7,8,9-hexahydropyrrolo[1′,2′:4,5]pyrazino[2,3-c]pyridazin-8-yl)oxy)-3-methylpyridin-2-yl)methyl)piperidin-4-yl)-1-oxoisoindolin-2-yl)piperidine-2,6-dione], in test [2], the DC50 is less than 100 nM and the Dmax is greater than 75%. Moreover, in test [3], the DC50 was less than 100 nM and the Dmax is 50 to 75%.
